Consider 27 molecules from ChEMBL document CHEMBL1121497, “Studies on cardiovascular agents. 6. Synthesis and coronary vasodilating and antihypertensive activities of 1,2,4-triazolo[1,5-a]pyrimidines fused to heterocyclic systems” (1980).

Test [1] is filed under the species Cavia porcellus. In words: Integrated vasodilating potency (the product of compound-induced maximum percent decrease in the perfusion pressure and the duration of the effect in minutes at 100 ug (ia); Coronary vasoconstricting action). Type of test: functional.
Another test deals with Rattus norvegicus. As to the kind of experiment: Hypotensive index (HI) measured as the area under the time-hypotensive response curve for 6-h period at 30 mg/kg, po. In kind it is functional.
The species entered for test [2] is Cavia porcellus. In words: Integrated vasodilating potency is the product of compound-induced maximum percent decrease in the perfusion pressure and the duration of the effect in minutes at 100 ug (ia). Type of test: functional.
In test [3] the test system is Canis familiaris. In words: Percent increase in coronary blood flow in anesthetized dogs after intravenous administration at 0.1 mg/kg. Type of test: functional, Canis lupus familiaris, Artery.
For test [4], the system named is Canis familiaris. In words: Time taken for increase in coronary blood flow in anesthetized dogs after intravenous administration at 1 mg/kg. Type of test: functional, Canis lupus familiaris, Blood/Heart.
Test [5] has as its system Canis familiaris. In words: Maximum percent decrease in mean blood pressure in anesthetized dogs after intravenous administration at 0.3 mg/kg. Type of test: functional, Canis lupus familiaris.
The subject of test [6] is Canis familiaris. In words: Maximum percent decrease in mean blood pressure in anesthetized dogs after intravenous administration at 0.1 mg/kg. Type of test: functional, Canis lupus familiaris.
The subject of test [7] is Canis familiaris. In words: Increase in coronary blood flow in anesthetized dogs was measured relative to trapidil (1 mg/kg) after intravenous administration of 0.1 mg/kg. In kind it is functional, Canis lupus familiaris, Artery.
Test [8] concerns Canis familiaris. As to the kind of experiment: Maximum percent decrease in mean blood pressure in anesthetized dogs after intravenous administration at 1 mg/kg. In kind it is functional, Canis lupus familiaris.
Test [9] concerns Canis familiaris. In words: Percent increase in coronary blood flow in anesthetized dogs after intravenous administration at 1 mg/kg (p<0.05). Type of test: functional, Canis lupus familiaris, Artery.
Test [10] relates to Canis familiaris. As to the kind of experiment: Percent increase in coronary blood flow in anesthetized dogs after intravenous administration at 0.3 mg/kg. In kind it is functional, Canis lupus familiaris, Artery.
The test system of test [11] is Canis familiaris. As to the kind of experiment: Time taken for increase in coronary blood flow in anesthetized dogs after intravenous administration at 0.3 mg/kg. In kind it is functional, Canis lupus familiaris, Blood/Heart.
The subject of test [12] is Canis familiaris. As to the kind of experiment: Increase in coronary blood flow in anesthetized dogs was measured relative to trapidil (1 mg/kg) after intravenous administration of 1 mg/kg. In kind it is functional, Canis lupus familiaris, Artery.
Test [13] deals with Canis familiaris. In words: Time taken for increase in coronary blood flow in anesthetized dogs after intravenous administration at 0.1 mg/kg. In kind it is functional, Canis lupus familiaris, Blood/Heart.
The species named for test [14] is Cavia porcellus. In words: Integrated vasodilating potency (IVP) (the product of compound-induced maximum percent decrease in the perfusion pressure and the duration of the effect in minutes at 100 ug (ia)). In kind it is functional.
For test [15], the system named is Canis familiaris. As to the kind of experiment: Increase in coronary blood flow in anesthetized dogs was measured relative to trapidil (1 mg/kg) after intravenous administration of 0.3 mg/kg. In kind it is functional, Canis lupus familiaris, Artery.

With `Cc1nc2ncnn2c2c1CCN2CC(C)O` (stereo unspecified), the IVP entry in the test listed under Cavia porcellus [1] was “Coronary vasoconstricting action”. Moreover, in the test with Rattus norvegicus, the HI was found to be 5.
The like results for `Cc1nc2ncnn2c2c1CCCN2Cc1ccccc1Cl` were, in that order, “Coronary vasoconstricting action” and 10.
In turn, `CCCCCCCN1CCc2c(C)nc3ncnn3c21` returned an IVP in the test filed under Cavia porcellus [2] of 184. This molecule also yielded an HI in the test with Rattus norvegicus of 30.
With `Cc1nc2nc(-c3ccc(Cl)cc3)nn2c2c1CCN2CCCN1CCCC1`, the IVP result in the test listed under Cavia porcellus [1] is on record as “Coronary vasoconstricting action”. This molecule also returned an HI in the test on Rattus norvegicus of 0.
`COc1cc(-c2nc3nc(C)c4c(n3n2)N(Cc2ccccc2Cl)CC4)cc(OC)c1OC`: the IVP result in the test filed under Cavia porcellus [1] is on record as “Coronary vasoconstricting action”. The molecule further had an HI in the test with Rattus norvegicus of 0.
Take `Cc1nc2ncnn2c2c1CCN2C(C)(C)C` [BUMEPIDIL]: the Max in the test with Canis familiaris [3] was found to be 34.7%; in the test with Canis familiaris [9], 219.8%; in the test on Canis familiaris [10] it was 132.3%. Besides, the Duration with Canis familiaris [4] stood at 10.6 min; in the test on Canis familiaris [11] it was 9.3 min; in the test with Canis familiaris [13], 4.3 min. Further, the Decrease with Canis familiaris [5] was -11.7%; in the test on Canis familiaris [6], -3.3%; in the test with Canis familiaris [8], -32.3%. For the same molecule, the figures for the Relative potency in the test on Canis familiaris [7], in the test with Canis familiaris [12] and in the test with Canis familiaris [15] were 0.7, 8.4 and 3.8, respectively. Further, the HI in the test with Rattus norvegicus was 181. Besides, the IVP in the test filed under Cavia porcellus [14] stood at 815.
Consider `Cc1nc2ncnn2c2c1CCN2CC(O)CO` (stereo unspecified), for which, in the test filed under Cavia porcellus [1], the IVP entry is “Coronary vasoconstricting action”. In the test on Rattus norvegicus, this molecule returned an HI of 15.
With `Cc1nc2ncnn2c2c1CCCN2Cc1ccccc1F`, the IVP result in the test filed under Cavia porcellus [1] is recorded as “Coronary vasoconstricting action”. In the test with Rattus norvegicus, this molecule had an HI of 0.
For `Cc1nc2nc(-c3ccc(Cl)cc3)nn2c2c1CCN2C(C)C` the same measures were “Coronary vasoconstricting action” and 0.
In the case of `COc1ccc(-c2nc3nc(C)c4c(n3n2)N(C(C)(C)C)CC4)cc1`, the IVP result in the test listed under Cavia porcellus [1] was “Coronary vasoconstricting action”. This molecule also returned an HI in the test on Rattus norvegicus of 13.
`Cc1nc2nc(-c3ccccc3)nn2c2c1CCN2C(C)(C)C`: the IVP entry in the test filed under Cavia porcellus [1] was “Coronary vasoconstricting action”. Also, in the test with Rattus norvegicus, the HI is 0.
For `Cc1nc2nc(-c3ccc(Cl)cc3)nn2c2c1CCN2C(C)(C)C`, the IVP result in the test listed under Cavia porcellus [1] was “Coronary vasoconstricting action”. This molecule returned an HI with Rattus norvegicus of 10.
On to `CCCCN1CCc2c(C)nc3nc(-c4ccccc4)nn3c21`, for which, in the test filed under Cavia porcellus [1], the IVP entry was “Coronary vasoconstricting action”. Besides, the HI in the test with Rattus norvegicus amounted to 10.
`CCC1Cc2c(C)nc3ncnn3c2N1Cc1ccccc1F` (stereo unspecified) came in with an HI with Rattus norvegicus of 0. For the same molecule, the IVP in the test filed under Cavia porcellus [14] is reported as 67.
The like results for `Cc1nc2ncnn2c2c1CCN2C1CCCCC1` were, in that order, 12 and 65.
Take `Cc1nc2ncnn2c2[nH]ccc12`: the HI in the test on Rattus norvegicus came out at 60. Besides, in the test filed under Cavia porcellus [14], the IVP came to 45.
As to `Cc1nc2nc(-c3ccccc3)nn2c2c1CCN2Cc1ccccc1F`, in the test filed under Cavia porcellus [1], the IVP entry is “Coronary vasoconstricting action”. In the test with Rattus norvegicus, the HI was determined as 8.
As for `Cc1nc2ncnn2c2c1CCN2CCC(C)C`, in the test on Rattus norvegicus, the HI is on record as 5. The IVP in the test listed under Cavia porcellus [14] is 118.
The like results for `Cc1nc2ncnn2c2c1N(C)CCN2C` were, in that order, 25 and 45.
Turning to `COc1ccc(-c2nc3nc(C)c4c(n3n2)N(C(C)C)CC4)cc1`, the IVP result in the test filed under Cavia porcellus [1] is listed as “Coronary vasoconstricting action”. For the same molecule, the HI in the test with Rattus norvegicus worked out at 0.
For `Cc1nc2nc(-c3ccccc3)nn2c2c1CCN2C(C)C`, the IVP entry in the test listed under Cavia porcellus [1] is on record as “Coronary vasoconstricting action”. Also, the HI with Rattus norvegicus came out at 0.
Consider `Cc1nc2ncnn2c2c1CCN2c1c(Cl)cccc1Cl`, for which the HI with Rattus norvegicus was 0. Moreover, the IVP in the test listed under Cavia porcellus [14] is listed as 7.
As to `Cc1nc2ncnn2c2c1CCN2C1CCCCCCC1`, the IVP entry in the test filed under Cavia porcellus [1] is reported as “Coronary vasoconstricting action”. Also, in the test on Rattus norvegicus, the HI is 15.
`CCC1Cc2c(C)nc3ncnn3c2N1C(C)(C)C` (stereo unspecified) registered an HI in the test on Rattus norvegicus of 12. The molecule also registered an IVP in the test filed under Cavia porcellus [14] of 227.
The like results for `CCCN1CCc2c(C)nc3ncnn3c21` were, in that order, 15 and 193.
For `Cc1nc2ncnn2c2c1ccn2C(C)(C)C` the same measures were 160 and 246.
For `Cc1nc2ncnn2c2c1CCN2Cc1ccc(Cl)cc1` the same measures were 145 and 250.
